Reference: patent publication US20150297761A1, “PEPTIDIC STRUCTURES INCORPORATING AN AMINO ACID METAL COMPLEX AND APPLICATIONS IN MAGNETIC RESONANCE IMAGING” (THE GENERAL HOSPITAL CORPORATION, priority 2012, published 2015)
Where two headings read alike, the source gives them in different places.

Experiments:
[1] = Ligand challenge, equilibrium constant Kcomp of MS-325 vs. L; format: physicochemical
Description: (§1) Equilibration of each solution was monitored by LC-MS. Relative distributions of [Gd(CyPic3A)(H2O)2]^− and CyPic3A were determined by integrating the corresponding absorbance traces at 280 nm. […] Kcomp values determined between [Gd(DTPA)(H2O)]^2− and various ligands were determined from conditional formation constants (Kcond)^4 values taken from the literature.^6-16 Direct comparisons were only made between Kcond values determined under identical conditions.

[2] = Zn(II) challenge of the Gd(III) complex of L; literature (ref 11); cited from earlier work
[3] = Ligand challenge, equilibrium constant Kcomp of [Gd(DTPA)(H2O)]2− vs. L; format: physicochemical; conditions: for Kcomp [Gd(DTPA)(H2O)]^2- vs. L pH 4 / Kcomp, [Gd(DTPA)(H2O)]^2- vs. L pH 7.4: calculated from literature thermodynamic data
Description: As a means of assessing thermodynamic stability relative to other Gd(III)-complexes, [Gd(CyPic3A)(H2O)2]^− was challenged with DTPA in pH 7.4 25 mM Tris buffer. […] From this information it was possible to deduce equilibrium constants (Kcomp) for the competition reaction described in Equation 5,^31 where L=DTPA and L′=challenging chelator.
as §1

[4] = Kinetic inertness: Zn(II) transmetallation in phosphate buffer, followed by 1/T1; format: physicochemical
From the text: Kinetic inertness was also taken into account in the evaluation of potential probes. In this regard, [Gd(CyPic3A)(H2O)2]^− was challenged with 1 equiv. [ZnPO4]^− as a slurry in pH 7.0 phosphate buffer at 310 K (see below). Several clinically utilized Gd(III) complexes have been benchmarked relative to one another in this manner.^37 As Gd(III) replaced by Zn(II) precipitates from the solution as GdPO4, the relaxation rate 1/T1 decreases. In this method, the time required to reach 80% of the initial 1/T1 value was utilized as an index of kinetic inertness.
Modified conditions of Muller and co-workers were used for this experiment.^11,12 Solutions containing 2.5 mM [Gd(CyPic3A)(H2O)2]^− and 2.5 mM Zn(OTf)2 were combined in pH 7.0 phosphate buffer (50 mM) and placed in an incubator shaker set to 310 K. Progress of the transchelation was monitored via the decrease in 1/T1 with time. Prior to measurement, aliquots were placed in small glass inserts and centrifuged to bring all insoluble material to the bottom so as not to interfere with the measurement.

[5] = Ligand challenge, equilibrium constant Kcomp of [Gd(DTPA)(H2O)]2− vs. L; format: physicochemical; conditions: obtained through ligand challenge
[6] = literature (refs 37, 38), cited from earlier work
[7] = cited from earlier work
[8] = buffer, pH 3
Description: For comparison, we also measured transchelation from the approved contrast agents [Gd(HP-DO3A)(H2O)] (ProHance, gadoteridol) and [Gd(DTPA)(H2O)]^2− (Magnevist, gadopentetate). […] We estimated half-times for these transchelations (time to 50% of the equilibrium value).
Stock solutions of MS-325-L and GdL1, Gd2L2 and Gd3L3 were prepared in 50 mM citrate buffer at pH 3.0. MS-325-L was added to solutions of the Gd complexes and incubated at 37° C. The final concentrations of the metal complexes were 0.1 mM, while the concentration of MS-325-L was adjusted according to the amounts of Gd complexes per metallopeptide present. A 10 μL aliquot was removed for HPLC analysis and analyzed while the remainder of the solution was incubated at 37° C.

[9] = Relaxivity of Gd(DOTAla) metallopeptides and reference agents (T1 inversion recovery, 37° C.); format: physicochemical
Description: Main numbers are given per Gd, numbers in parentheses are per molecule values. All numbers were determined at 37° C. using an inversion recovery sequence at concentrations ranging from 0.05 to 0.6 mM/Gd. Table 4 in Example 2 further expands the data of Table 1.
Per Gd relaxivities were determined by measuring T1 at 37° C. using 20, 60, 200, 400 and 500 MHz spectrometers. Relaxivities for MS-325 (with and without the presence of HSA) as a reference compound with a long τR and [Gd(HP-DO3A)(H2O)] as a reference for very short τR were also measured, and all the relaxivity data is tabulated in Table 4, together with results obtained from literature for the compounds with similar estimated τR. […] Additional rigidity through cyclization seems to provide only minor relaxivity increase for the dimeric and trimeric systems (Gd2C2 and Gd3C3).
Measurement of relaxivity. Longitudinal relaxation times T1, were measured on Bruker Minispecs mq20 (0.47 T) and mq60 (1.41 T), a Bruker Bioscan horizontal bore 4.7 T, 9.4 T and 11.7 T Varian NMR spectrometers. T1 was measured by using an inversion recovery method with 10 inversion time values ranging from 0.05×T1 to 5×T1. Relaxivity was calculated from a linear plot of 3 or 4 different concentrations (ranging from 0.01 to 0.5 mM, depending on amount of compound isolated) versus the corresponding inverse relaxation times. All samples were measured at 37° C. using either the internal temperature control of the instrument (0.47, 1.41, 9.4 and 11.7 T) or a warm air blower (4.7 T). MS-325/HSA was prepared in a 4.5% w/v solution of HSA (0.66 mM) in PBS. The MS-325 concentration (in presence of HSA) ranged from 0.05 to 0.15 mM.

[10] = hydration state; literature (superscript refs); cited from earlier work
[11] = Relaxometry of [Gd(CyPic3A)(H2O)2]− in different media; format: physicochemical
Description: The relaxivity of [Gd(CyPic3A)(H2O)2]^− is consistent with two inner-sphere water ligands. At 310 K in pH 7.4 50 mM HEPES buffer, r1=5.70 mM^−1 s^−1 at 1.41 T (7.53 mM^−1s^−1 at 298 K). This is 75% higher than [Gd(DTPA)(H2O)]^2− measured under these conditions (see below for detailed table of r1 values). To probe the effects of potentially coordinating anions, nwas measured in the presence of 20 equiv. carbonate or L-lactate and also in 25 mM phosphate buffer (pH 7.4).
Relaxivity measurements were performed on a Bruker mq60 or Bruker mq20 Minispec at 1.41 T and 0.47 T, respectively, and 37° C. Longitudinal (T1) relaxation was acquired via an inversion recovery experiment on 10 inversions of duration ranging between 0.05×T1 and 5×T1. Relaxivity (r1) was determined from the slope of a plot of 1/T1 vs. [Gd] for at least 4 concentrations of Gd(III). The transverse (T2) relaxation times of ^17O were acquired at 500 MHz using a CPMG pulse sequence at temperatures ranging from 278 to 368 K. Reduced relaxation rates (1/T2r) were calculated by dividing the [Gd(CyPic3A)(H2O)2]^− imparted increase in 1/T2 relative to neat H2O at pH 3 by the mole fraction of coordinated water molecules.

[12] = calculated from literature thermodynamic data
[13] = obtained through ligand challenge
[14] = 0.47 T, 310 K, literature (superscript refs)

O=C(O)CN(CCN(CC(=O)O)C[C@H](COP(=O)(O)OC1CCC(c2ccccc2)(c2ccccc2)CC1)N(CC(=O)O)CC(=O)O)CC(=O)O
Kcomp MS-325 vs. L pH 4 [1, 12]: 1 | Kcomp MS-325 vs. L pH 7.4 [1, 12]: 1 | Time to 80% r1 (min) [2]: 3800^11 min | Kcomp [Gd(DTPA)(H2O)]^2- vs. L pH 4 [3]: 0.57^5 | Kcomp, [Gd(DTPA)(H2O)]^2- vs. L pH 7.4 ([3]; pH 7.4): 2.88^5

N-((6-methylpicol-2-yl)methyl)-N,N′,N′-triacetate-trans-1,2-diaminocyclohexane [CyPic3A]
Kcomp MS-325 vs. L pH 4 [1, 13]: 0.031 | Kcomp MS-325 vs. L pH 7.4 [1, 13]: 0.56 | Time to 80% r1 ([4]; Zn(II) challenge of the Gd(III) complex of L, this work): 95 min | affinity for Gd(III) lower than DTPA ([3]; pH 7.4): about 5 fold | Kcomp [Gd(DTPA)(H2O)]^2- vs. L pH 4 [5]: 0.18

Gd(DO3A-N-α-aminopropionate) [F]
ΔH^‡ ([6]; activation enthalpy of water exchange): 4.57 kcal/mol | ^310kex × 10^6 (s^−1) ([6]; water exchange rate at 310 K): 42 × 10^6 s^−1 | ^310 TM (ns) ([6]; water residency time at 310 K (37° C.)): 24 ns

O=C(O)CN1CCNCCN(CC(=O)O)CCN(CC(=O)O)CC1 [DO3A]
Kcomp MS-325 vs. L pH 4 [1, 12]: 0.00046^5,6 | Kcomp MS-325 vs. L pH 7.4 [1, 12]: 0.00017^5,6 | Time to 80% r1 (min) [2]: inert^11 | Kcomp [Gd(DTPA)(H2O)]^2- vs. L pH 4 [3]: 0.00048^5,6 | Kcomp, [Gd(DTPA)(H2O)]^2- vs. L pH 7.4 ([3]; pH 7.4): 0.0005^5,6

CC(O)CN1CCN(CC(=O)[O-])CCN(CC(=O)[O-])CCN(CC(=O)[O-])CC1.[Gd+3] (stereo not shown) [[Gd(HP-DO3A)(H2O)], gadoteridol, reference compound]
r1 0.47 T 310K [7, 14]: 3.1^17 mM^−1s^−1 | r1 1.41 T 310K ([7]; cell says 1.5 T, 310 K, literature (ref 17)): 2.9 (1.5 T)^17 mM^−1s^−1 | t1/2 [h], Gd transchelation to MS-325 [8]: 91 ± 6 h | Relaxivity per Gd, 20 MHz ([9]; 20 MHz): 4.3 mM⁻¹ s⁻¹ | Relaxivity per Gd, 60 MHz ([9]; 60 MHz): 3.2 mM⁻¹ s⁻¹ | Relaxivity per Gd, 200 MHz ([9]; 200 MHz): 3.6 mM⁻¹ s⁻¹ | Relaxivity per Gd, 400 MHz ([9]; 400 MHz (9.4 T)): 3.0 mM⁻¹ s⁻¹ | Relaxivity per Gd, 500 MHz ([9]; 500 MHz): 2.9 mM⁻¹ s⁻¹ | r1 [0.47 T], per Gd ([9]; per Gd, 0.47 T): 4.33 mM⁻¹ s⁻¹ | r1 [1.4 T], per Gd ([9]; per Gd, 1.4 T): 3.21 mM⁻¹ s⁻¹ | r1 [9.4 T], per Gd ([9]; per Gd, 9.4 T): 3.03 mM⁻¹ s⁻¹ | r1 [11.7 T], per Gd ([9]; per Gd, 11.7 T): 2.94 mM⁻¹ s⁻¹ | q [10]: 1^16

O=C([O-])CN(CCN(CC(=O)[O-])CC(=O)O)CCN(CC(=O)[O-])CC(=O)O.[Gd+3] [[Gd(DTPA)(H2O)]^2−, gadopentetate]
r1 0.47 T 298K ([7]; 0.47 T, 298 K, literature (superscript refs)): 4.3^16 mM^−1s^−1 | r1 0.47 T 310K [7, 14]: 3.4^17 mM^−1s^−1 | t1/2 [h], Gd transchelation to MS-325 [8]: 0.42 ± 0.18 h | r1 1.41 T 310K [11]: 3.26 mM⁻¹ s⁻¹ | r1 ([11]; 1.41 T, 310 K, pH 7.4 50 mM HEPES buffer): 3.26 mM⁻¹ s⁻¹ | q [10]: 1^16 | time to 80% of the initial 1/T1 ([4]; 1 equiv. Zn(II), pH 7.0 phosphate buffer, 310 K): 383 min

CC(O)CN1CCN(CC(=O)O)CCN(CC(=O)O)CCN(CC(=O)O)CC1 (stereo not shown) [HP-DO3A]
Kcomp MS-325 vs. L pH 4 [1, 12]: 0.16^5,6 | Kcomp MS-325 vs. L pH 7.4 [1, 12]: 0.07^5,6 | Time to 80% r1 (min) [2]: inert^11 | Kcomp [Gd(DTPA)(H2O)]^2- vs. L pH 4 [3]: 0.22^6 | Kcomp, [Gd(DTPA)(H2O)]^2- vs. L pH 7.4 ([3]; pH 7.4): 0.19^6
